Laboratory results taken from patent US4638070A, “Heterocyclic amino-alcohol derivatives” (Continental Pharma, priority 1980, dated 1987).

Assays:
[1] = Acute toxicity, oral, LD50 (Litchfield and Wilcoxon); conditions: mouse, in vivo, fasted male mice, confidence limits p=95% in brackets
Protocol: (1) The acute toxicity was determined on fasted male mice. The tested substances were orally administered and LD50 values (lethal dose for 50% of animals) were calculated according to the method of Litchfield and Wilcoxon (J. Pharmacol. exp. Ther. 96, 94-113, 1949). These LD50 values are given in mg/kg and also, when possible, with their confidence limits for p=95%.

[2] = test system: unanaesthetized, hypertension-suffering rat; assay: Antihypertensive activity (systolic arterial pressure), oral; assay type: in vivo; conditions: 60 mg/kg, hypertensive rat, 3 hours
In short: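 Conscious hypertensive rats given compound orally at 60 mg/kg; systolic arterial pressure measured every 30 min for 2 h pre-dose and 3 h post-dose. Scored O (no fall), + (<10 mm Hg), ++ (10–20 mm Hg), +++ (>20 mm Hg).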

femoral artery = assay: Vasodilator activity, femoral artery (technique of perfused paw); assay type: in vivo; design: key: O: no action; +: slight activity; ++: effect equal to half the effect of papaverine; +++: effect equal to that of papaverine; ++++: effect higher than that of papaverine; conditions: intra-arterial, 30 mg/kg, anaesthetized dog, vs papaverine at same dose
Protocol: (3) The vasodilator activity was measured at the level of femoral artery on anaesthetized dog (technique of perfused paw). The tested substances were given intra-arterially at the rate of 30 mg/kg. Results are expressed with respect to papaverine tested at the same dose.
++: effect equal to half the effect of papaverine.
+++: effect equal to that of papaverine.
++++: effect higher than that of papaverine.

[3] = test system: guinea-pig ileum (histamine contractions); assay: Antispasmodic activity in vitro, contractions caused by histamine; conditions: added 15 minutes before spasm-producing agent
Protocol: (§1) (4) The antispasmodic activity was measured in vitro, on guinea-pig ileum, the contractions of which were caused by histammne (Hist.), acetylcholine (Achol) or barium chloride (BaCl2). The tested products were added to perfusion bath 15 minutes before the spasm-producing agents.
(§2) The dose is given in micograms (μg) per ml of bath causing complete spasm inhibition.

[4] = test system: guinea-pig ileum (acetylcholine contractions); assay: Antispasmodic activity in vitro, contractions caused by acetylcholine; conditions: added 15 minutes before spasm-producing agent
Protocol: as §1, §2

[5] = test system: guinea-pig ileum (barium chloride contractions); assay: Antispasmodic activity in vitro, contractions caused by barium chloride; conditions: added 15 minutes before spasm-producing agent
Protocol: as §1, §2

CC(NCCCCc1ccc(Cl)cc1)C(O)c1ccc2c(c1)CCCS2 (stereo not drawn) [No 23]
LD50 [1]: ~2100 mg/kg
ANTIHYPERTENSIVE ACTIVITY [2]: +++ (reduction higher than 20 mm Hg)
VASODILATOR ACTIVITY (femoral artery): ++++
ANTISPASMODIC ACTIVITY HIST. (dose causing complete spasm inhibition) [3]: 0.8 μg per ml
ANTISPASMODIC ACTIVITY ACHOL (dose causing complete spasm inhibition) [4]: 1.7 μg per ml
ANTISPASMODIC ACTIVITY BaCl2 (dose causing complete spasm inhibition) [5]: 0.8 μg per ml

CCCCCCCCNC(C)C(O)c1ccc2c(c1)CCCCS2 (stereo not drawn) [No 11]
LD50 [1]: 3300 mg/kg
VASODILATOR ACTIVITY (femoral artery): +++
ANTISPASMODIC ACTIVITY HIST. (dose causing complete spasm inhibition) [3]: 0.8 μg per ml
ANTISPASMODIC ACTIVITY ACHOL (dose causing complete spasm inhibition) [4]: 1.7 μg per ml
ANTISPASMODIC ACTIVITY BaCl2 (dose causing complete spasm inhibition) [5]: 3.3 μg per ml

CC(C(O)c1ccc2c(c1)CCCS2)N1CCC(Cc2ccccc2)CC1 (stereo not drawn) [No 26]
ANTIHYPERTENSIVE ACTIVITY [2]: +++ (reduction higher than 20 mm Hg)
ANTISPASMODIC ACTIVITY HIST. (dose causing complete spasm inhibition) [3]: 0.017 μg per ml
ANTISPASMODIC ACTIVITY ACHOL (dose causing complete spasm inhibition) [4]: 1.7 μg per ml
ANTISPASMODIC ACTIVITY BaCl2 (dose causing complete spasm inhibition) [5]: 0.8 μg per ml

CC(NCCc1ccccc1)C(O)c1ccc2c(c1)CCCS2 (stereo not drawn) [No 13]
VASODILATOR ACTIVITY (femoral artery): ++
ANTISPASMODIC ACTIVITY HIST. (dose causing complete spasm inhibition) [3]: 3.3 μg per ml
ANTISPASMODIC ACTIVITY ACHOL (dose causing complete spasm inhibition) [4]: 0.8 μg per ml
ANTISPASMODIC ACTIVITY BaCl2 (dose causing complete spasm inhibition) [5]: 3.3 μg per ml

CC(NC1CCCCCCC1)C(O)c1ccc2c(c1)CCCS2 (stereo not drawn) [No 27]
VASODILATOR ACTIVITY (femoral artery): ++
ANTISPASMODIC ACTIVITY HIST. (dose causing complete spasm inhibition) [3]: 1.7 μg per ml
ANTISPASMODIC ACTIVITY ACHOL (dose causing complete spasm inhibition) [4]: 1.7 μg per ml
ANTISPASMODIC ACTIVITY BaCl2 (dose causing complete spasm inhibition) [5]: 1.7 μg per ml

CC(NCCCCCc1ccccc1)C(O)c1ccc2c(c1)CCCS2 (stereo not drawn) [No 8]
VASODILATOR ACTIVITY (femoral artery): ++++
ANTISPASMODIC ACTIVITY HIST. (dose causing complete spasm inhibition) [3]: 0.8 μg per ml
ANTISPASMODIC ACTIVITY ACHOL (dose causing complete spasm inhibition) [4]: 1.7 μg per ml
ANTISPASMODIC ACTIVITY BaCl2 (dose causing complete spasm inhibition) [5]: 0.8 μg per ml

CC(NCCC(c1ccccc1)c1ccccc1)C(O)c1ccc2c(c1)CCCS2 (stereo not drawn) [No 16]
LD50 [1]: > 4000 mg/kg
ANTIHYPERTENSIVE ACTIVITY [2]: ++ (reduction of 10 to 20 mm Hg)
VASODILATOR ACTIVITY (femoral artery): +++
ANTISPASMODIC ACTIVITY HIST. (dose causing complete spasm inhibition) [3]: 0.3 μg per ml
ANTISPASMODIC ACTIVITY ACHOL (dose causing complete spasm inhibition) [4]: 0.8 μg per ml
ANTISPASMODIC ACTIVITY BaCl2 (dose causing complete spasm inhibition) [5]: 0.33 μg per ml

CC1Cc2cc(C(O)C(C)NCCCCc3ccccc3)ccc2S1 (stereo not drawn) [No 19]
LD50 [1]: 1550 mg/kg
ANTIHYPERTENSIVE ACTIVITY [2]: +++ (reduction higher than 20 mm Hg)
VASODILATOR ACTIVITY (femoral artery): +++
ANTISPASMODIC ACTIVITY HIST. (dose causing complete spasm inhibition) [3]: 0.8 μg per ml
ANTISPASMODIC ACTIVITY ACHOL (dose causing complete spasm inhibition) [4]: 1.7 μg per ml
ANTISPASMODIC ACTIVITY BaCl2 (dose causing complete spasm inhibition) [5]: 0.8 μg per ml

Cc1ccccc1N1CCN(C(C)C(O)c2ccc3c(c2)CCC(C)S3)CC1 (stereo not drawn) [No 10]
LD50 [1]: > 4000 mg/kg
ANTIHYPERTENSIVE ACTIVITY [2]: +++ (reduction higher than 20 mm Hg)
VASODILATOR ACTIVITY (femoral artery): ++
ANTISPASMODIC ACTIVITY HIST. (dose causing complete spasm inhibition) [3]: 0.33 μg per ml
ANTISPASMODIC ACTIVITY ACHOL (dose causing complete spasm inhibition) [4]: 16.7 μg per ml
ANTISPASMODIC ACTIVITY BaCl2 (dose causing complete spasm inhibition) [5]: 8.3 μg per ml

COc1ccc(CCNC(C)C(O)c2ccc3c(c2)CCCS3)cc1OC (stereo not drawn) [No 22]
LD50 [1]: 3700 mg/kg
ANTISPASMODIC ACTIVITY HIST. (dose causing complete spasm inhibition) [3]: 3.3 μg per ml
ANTISPASMODIC ACTIVITY ACHOL (dose causing complete spasm inhibition) [4]: 8.3 μg per ml
ANTISPASMODIC ACTIVITY BaCl2 (dose causing complete spasm inhibition) [5]: 8.3 μg per ml

CCCCCCCCNC(C)C(O)c1ccc2c(c1)CCCS2 (stereo not drawn) [No 1, 1-(6-Thiochromanyl)-2-n-octylamino-1-propanol]
LD50 [1]: > 4000 mg/kg
ANTIHYPERTENSIVE ACTIVITY [2]: ++ (reduction of 10 to 20 mm Hg)
VASODILATOR ACTIVITY (femoral artery): ++++
ANTISPASMODIC ACTIVITY HIST. (dose causing complete spasm inhibition) [3]: 3.3 μg per ml
ANTISPASMODIC ACTIVITY ACHOL (dose causing complete spasm inhibition) [4]: 3.3 μg per ml
ANTISPASMODIC ACTIVITY BaCl2 (dose causing complete spasm inhibition) [5]: 1.7 μg per ml

Cc1ccccc1N1CCN(C(C)C(O)c2ccc3c(c2)CCCS3)CC1 (stereo not drawn) [No 15]
ANTIHYPERTENSIVE ACTIVITY [2]: +++ (reduction higher than 20 mm Hg)
VASODILATOR ACTIVITY (femoral artery): +++
ANTISPASMODIC ACTIVITY HIST. (dose causing complete spasm inhibition) [3]: 0.8 μg per ml
ANTISPASMODIC ACTIVITY ACHOL (dose causing complete spasm inhibition) [4]: 3.3 μg per ml
ANTISPASMODIC ACTIVITY BaCl2 (dose causing complete spasm inhibition) [5]: > 16.7 μg per ml
